Assay results taken from article PMC9646673, “A Novel, Orally Bioavailable, Small-Molecule Inhibitor of PCSK9 With Significant Cholesterol-Lowering Properties In Vivo” (Journal of Lipid Research, 2022).

Legend:
hepatic LDLR protein = experiment: Second efficacy study: hepatic LDLR protein (Western blotting); type: in vivo, mouse; settings: day 35; NYX-PCSK9i 50 mg/kg BID PO, atorvastatin […]
APOE∗3-Leiden.CETP mice [1] = experiment: Second efficacy study: body weight, food intake, plasma ALT and AST; type: in vivo, mouse; parameters: Body weight (mean ± SD) / Food intake (mean ± SD): unit not given here; settings: NYX-PCSK9i 50 mg/kg BID PO, atorvastatin […]
Excerpt: Animal experiments were approved by the governmental central committee on animal experiments (AVD5010020172064) and TNO’s animal welfare body (TNO-471 and TNO-482). Female APOE∗3-Leiden.CETP transgenic mice (11–16 weeks of age) were bred at the animal facility of TNO-InnoSer (Leiden, The Netherlands). Female animals were used in this study as they are more responsive to dietary cholesterol and fat than males and therefore typically develop atherosclerosis more rapidly than male APOE∗3-Leiden and APOE∗3-Leiden.CETP mice on cholesterol-containing diets ([33], [34]). Although measurements of atherosclerosis were not included as part of the present study, females were used with the prospect in mind that atherosclerosis studies will follow. The mice were housed under standard conditions that included 12 h light-dark cycles and access to a WTD and sterilized tap water ad libitum. Body weight, food intake, and clinical signs of behavior were monitored throughout the studies. […] Time t = 0 (weeks) was designated as the time at which mice were matched into groups after the 3-week run-in period in each efficacy study.
In both studies, blood samples were collected at weekly intervals via tail vein sampling after fasting the mice for 4 h. Blood samples were centrifugated (4500 g at 4°C), and the plasma was collected for the following analyses. Total plasma cholesterol levels were determined using a Cholesterol CHOD-PAP kit according to the manufacturer’s instructions. Plasma HDL-C levels were determined by first precipitating apoB-containing lipids using PEG 6000/glycine and then utilizing the Cholesterol CHOD-PAP kit ([35]). Non-HDL-C levels were determined by subtracting HDL-C levels from total cholesterol levels ([32]). Group-pooled lipoprotein profiles were determined by FPLC analysis using an AKTApurifier 10 FPLC system (GE Healthcare, Chicago, IL). Plasma PCSK9 levels were determined using a Mouse PCSK9 Quantikine ELISA kit as per the manufacturer’s protocol. ALT and AST levels of group-pooled samples were measured using the Roche Reflotron Plus System (Mannheim, Germany).

APOE∗3-Leiden.CETP mice [2] = settings: cited from earlier work

CC(C)c1c(C(=O)Nc2ccccc2)c(-c2ccccc2)c(-c2ccc(F)cc2)n1CC[C@@H](O)C[C@@H](O)CC(=O)O [atorvastatin, reference compound]
increase in hepatic LDLR protein expression (hepatic LDLR protein): no significant effect | Body weight (mean ± SD) (APOE∗3-Leiden.CETP mice [1]; day 0 (baseline)): 21.7 ± 0.8 | Food intake (mean ± SD) (APOE∗3-Leiden.CETP mice [1]; day 0 (baseline)): 3.4 ± 0.3 | Food intake (mean ± SD) (APOE∗3-Leiden.CETP mice [1]; day 7): 2.5 ± 0.1 | Food intake (mean ± SD) (APOE∗3-Leiden.CETP mice [1]; day 14): 2.5 ± 0.2 | Food intake (mean ± SD) (APOE∗3-Leiden.CETP mice [1]; day 21): 2.3 ± 0.0 | Body weight (mean ± SD) (APOE∗3-Leiden.CETP mice [1]; day 28): 21.8 ± 1.2 | Food intake (mean ± SD) (APOE∗3-Leiden.CETP mice [1]; day 28): 2.3 ± 0.1 | Food intake (mean ± SD) (APOE∗3-Leiden.CETP mice [1]; day 35): 2.5 ± 0.1

alirocumab: a monoclonal antibody against PCSK9
hepatic cholesteryl ester content, fecal bile acid content and fecal neutral sterol levels (APOE∗3-Leiden.CETP mice [2]): affected none of these parameters
